Measured values: patent EP1140830B1, “ARYLPIPERIDINE AND ARYL-1,2,5,6-TETRAHYDROPYRIDINE AMIDE DERIVATIVES HAVING 5HT1A RECEPTOR ACTIVITY” (Wyeth, priority 1998, dated 2000)
pEC50, pIC50, pKi: −log10 of the molar value. Read-outs that look alike come from different tables or passages of the source.

Key:
human 5HT1A receptor [1] = molecular target: T1, human 5HT1A receptor (Homo sapiens, UniProt P08908); assay: 5-HT1A Receptor Intrinsic Activity Assay (forskolin-stimulated cAMP in transfected CHO cells, RIA); assay type: cell-based; conditions: for Emax: Emax = 0 % means no agonist activity; for pIC50: antagonist mode: reversal of agonist-induced activity, antagonist preincubated 20 minutes before agonist and forskolin
T1 construct: expressed in transfected cells; host or cells: CHO cells
T1 sequence (P08908 1-422): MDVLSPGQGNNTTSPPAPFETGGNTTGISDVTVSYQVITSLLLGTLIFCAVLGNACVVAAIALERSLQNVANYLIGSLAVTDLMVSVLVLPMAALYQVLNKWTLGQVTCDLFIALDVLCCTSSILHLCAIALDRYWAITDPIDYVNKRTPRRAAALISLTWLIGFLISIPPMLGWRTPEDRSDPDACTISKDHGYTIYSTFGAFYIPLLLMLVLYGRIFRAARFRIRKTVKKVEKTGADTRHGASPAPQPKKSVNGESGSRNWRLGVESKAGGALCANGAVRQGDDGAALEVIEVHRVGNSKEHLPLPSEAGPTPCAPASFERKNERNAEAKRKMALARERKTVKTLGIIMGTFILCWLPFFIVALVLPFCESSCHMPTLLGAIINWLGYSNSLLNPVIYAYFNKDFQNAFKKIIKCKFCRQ
Protocol: 5-HT1A Receptor Intrinsic Activity Assay
The intrinsic activity of compounds of the present invention was established by testing the claimed compounds ability to reverse the stimulation of cyclic adenosinemonophosphate (cAMP) in CHO cells stably transfected with the human 5-HT1A receptor.
Stably transfected CHO cells were grown in DMEM containing 10% heat inactivated FBS and non-essential amino acids. The cells arc plated at a density of ? x10^6 cells per well in a 24 well plate and incubated for 2 days in a CO2 incubator. On the second day, the media is replaced with 0.5 mL treatment buffer (DMEM + 25 mM HEPES, 5 mM theophylline, 10 µM pargyline) and incubated for 10 minutes at 37°C. Wells are treated with forskolin (1 µM final concentration) followed immediately by the test compound (0.1 and 1 µM for initial screen) and incubated for an additional 10 minutes at 37°C. The reaction is terminated by removal of the media and addition of 0.5 mL ice cold assay buffer (supplied in the RIA kit). Plates are stored at -20°C prior to assessment of cAMP formation by RIA. EC50 values are determined for the active test compounds. Compounds shown to have no agonist activities (Emax = 0 %) are further analyzed for their ability to reverse agonist-induced activity. In separate experiments, 6 concentrations of antagonist are preincubated for 20 minutes prior to the addition of agonist and forskolin. Cells are harvested as described above. The CAMP kit is supplied by Amersham and the RIA is performed as per kit instructions, and calculations of IC50 performed by GraphPad Prism.

human 5HT1A receptor [2] = molecular target: T1, human 5HT1A receptor; assay: 5-HT1A Receptor Binding Assay ([3H] 8-OH-DPAT displacement in transfected CHO cells)
Protocol: 5-HT1A Receptor Binding Assay
Stably transfected CHO cells are grown in DMEM containing 10% heat inactivated FBS and non-essential amino acids. Cells are scraped off the plate, transferred to centrifuge tubes, and washed twice by centrifugation (2000 rpm for 10 min., 4"C) in buffer (50 mM Tris pH 7.5). The resulting pellets are aliquoted and placed at -80°C. On the day of assay, the cells are thawed on ice and resuspended in buffer. The binding assay is performed in a 96 well microtiter plate in a total volume of 250 µL. […] Following a 30 minute incubation at room temperature, the reaction is terminated by the addition of ice cold buffer and rapid filtration through a GF/B filter presoaked for 30 minutes in 0.5% PEI.

[3] = agonist mode: reversal of forskolin (1 µM) stimulated cAMP, CHO cells
[4] = displacement of [3H] 8-OH-DPAT (1.5 nM), CHO cells stably transfected with human 5HT1A receptor

SMILES	pEC50 (human 5HT1A receptor [1]; [3])	Emax (human 5HT1A receptor [1]; [3])	pKi (human 5HT1A receptor [2]; [4])	pIC50 (human 5HT1A receptor [1])	pKi (human 5HT1A receptor [2])
COc1ccccc1C1CCN(C[C@@H](Cc2ccccc2)NC(=O)C2CCCCC2)CC1 [Example 6, (R)-Cyclohexanecarboxylic acid {1-benzyl-2-[4-(2-methoxy-phenyl)-piperidin-1-yl]-ethyl}-amide]	7.77	92%	9.64	–	–
COc1ccccc1C1CCN(C[C@@H](Cc2ccccc2)NC(=O)C2(C)CCCCC2)CC1 [Example 5, (R)-1-Methyl-cyclohexanecarboxylic acid {1-benzyl-2-[4-(2-methoxy-phenyl)-piperidin-1-yl]-ethyl}-amide]	–	0%	9.62	9.54	–
COc1ccc(F)cc1C1=CCN(C[C@@H](Cc2ccccc2)N(C)C(=O)C2(C)CCCCC2)CC1 [Example 2, 1-Methyl-cyclohexanecarboxylic acid {(1R)-1-benzyl-2-[4-(5-fluoro-2-methoxy-phenyl)-1,2,5,6-tetrahydro-4H-pyridin-1-yl]-ethyl}-methyl-amide]	–	0%	–	–	8.31
COc1ccc(F)cc1C1CCN(C[C@@H](Cc2ccccc2)N(C)C(=O)C2(C)CCCCC2)CC1 [Example 1, 1-Methyl-cyclohexanecarboxylic acid {(1R)-1-benzyl-2-[4-(5-fluoro-2-methoxy-phenyl)-piperidine-1-yl]-ethyl}-methyl-amide]	–	0%	7.97	7.95	–
COc1ccccc1C1=CCN(C[C@@H](Cc2ccccc2)NC(=O)C2CCCCC2)CC1 [Example 3, (R)-Cyclohexanecarboxylic acid{1-benzyl-2-[4-(2-methoxy-phenyl)-3,6-dihydro-2H-pyridin-1-yl]-ethyl}-amide]	–	84%	–	–	–
COc1ccccc1C1=CCN(C[C@@H](Cc2ccccc2)NC(=O)C2(C)CCCCC2)CC1 [Example 4, (R)-1-Methyl-cyclohexanecarboxylic acid{1-benzyl-2-[4-(2-methoxy-phenyl)-3,6-dihydro-2H-pyridin-1-yl]-ethyl}-amide]	–	84%	–	–	–
